Reference: patent publication US20230181503A1, “FEED ADDITIVE” (LUCTA, S.A., priority 2020, published 2023)

Test system: IPEC-J2 cells (pig enterocytes)
Assay: Trans-epithelial electrical resistance (TEER) of IPEC-J2 monolayer
Format: cell-based
Conditions: formulations 50 μg/mL, genistein 50 μM
Procedure: Formulation C with HT:MA:OA at weight ratio 11:50:23 (50 μg/mL) and formulation D with HT:MA:OA at weight ratio 12:50:15 (50 μg/mL) were also tested on a cell line of pig enterocytes (IPEC-J2), at different conditions. IPEC-J2 cells were seeded into a permeable transwells membrane insert (6.5 mm diameter, 0.4 μm pore size, 0.33 cm2, polyester, Costar) at 1×10^5 cells/cm^2 to form a confluent monolayer within 4 days. Medium was replaced 48 h post-seeded and products were added on the apical side. On day 3 post-seeded, cells were treated with LPS (50 ng/mL) on the apical side and 24 h post-LPS stimulation epithelial cell integrity was assessed through the measurement of trans-epithelial electrical resistance (TEER) using a Millicell ERS-2 Voltohmmeter (Millipore, Billerica, Mass.). For each condition, triplicates were carried out in three independent experiments. At the end of incubation apical and basal media were eliminated and RNAlater solution (1 mL/well) was added to the cells for RNA stabilization and storage. Total RNA was extracted using RNA Mini Kit columns from Ambion (Life technologies, Carlsbad, Calif.) and stored at −80° C. for subsequent retrotranscription and quantitative RT-PCR. The extraction of total RNA was carried out using PureLink™ RNA Mini Kit according to the manufacturer's protocol. […]

What does the source list for `O=c1c(-c2ccc(O)cc2)coc2cc(O)cc(O)c12` [Genistein]?
TEER relative to DMSO control (IPEC-J2, + LPS 50 ng/mL, 24 h post-LPS, LPS alone = 61.7): 107%; TEER relative to DMSO control (IPEC-J2, without LPS, Control (DMSO) = 100): 129%
